Data on 19 compounds can be found in patent publication US20060035884A1, “N-cyclic sulfonamido inhibitors of gamma secretase” (Elan Pharmaceuticals, Inc., priority 2004, published 2006).

For the assay, the system named is gamma secretase cleavage of NotchδE (constitutively active rat Notch1 construct ZEDN1). The experiment in a line: Notch signaling reporter gene assay (4xwtCBF1 Luciferase co-transfected with NotchδE) for selective inhibitors of gamma secretase. It counts as cell-based. Particulars: assay not given, it follows the Notch signaling assay section. From the text: Due to the importance of Notch signaling in cell fate determination, and tissue differentiation during both development and in the adult, inhibition of Notch signaling by gamma secretase inhibitors is postulated to be a limiting factor in their therapeutic utility. […] Lindsell, O. Bogler, D. Hayward and G. Weinmaster (1996). “Notch signaling inhibits muscle cell differentiation through a CBF1-independent pathway.” Development 122(12): 3765-73 in combination with the CBF1 repressible Luciferase reporter gene 4xwtCBF1Luc (Hsieh, J. J., T. Henkel, P. Salmon, E. Robey, M. G. Peterson and S. D. Hayward (1996). “Truncated mammalian Notch1 activates CBF1/RBPJk-repressed genes by a mechanism resembling that of Epstein-Barr virus EBNA2. ” Mol Cell Biol 16(3): 952-9).
When 4xwtCBF1 Luciferase is co-transfected with NotchδE (ZEDN1), gamma-secretase cleavage of NotchδE releases the Notch intracellular domain (NICD), which translocates to the nucleus and de-represses CBF1 mediated transcriptional repression, leading to transcription of the Luciferase reporter gene. Luciferase activity is easily assayed in cell extracts using commercially available kits. The activity of the reporter gene is directly correlated with gamma secretase cleavage of NotchδE, and as such, a reduction in Luciferase activity provides a convenient measure of inhibition of gamma secretase cleavage of NotchδE.
In general terms: Reporter assays use an easily measured gene product as a stand-in for the process of interest.

As for `CCOC(=O)C1CCCN(S(=O)(=O)c2ccc(Cl)cc2)C1` (stereo not shown) [Compound 65, 1-(4-Chloro-benzenesulfonyl)-piperidine-3-carboxylic acid ethyl ester], the IC50 is more than 10000 nM.

Consider `CC1CCC(C)N1S(=O)(=O)c1ccc(Cl)cc1` (stereo not shown) [Compound 124, 1-(4-Chloro-benzenesulfonyl)-2,5-dimethyl-pyrrolidine], for which the IC50 was in the range of 1000 to 10000 nM.

On to `CC1CC(C)CN(S(=O)(=O)c2ccc(Cl)cc2)C1` (stereo not shown) [Compound 51, 1-(4-Chloro-benzenesulfonyl)-3,5-dimethyl-piperidine], for which the IC50 lay within 1000 to 10000 nM.

With `CC1(c2ccccc2)CCCN(S(=O)(=O)c2ccc(Cl)cc2)C1` (stereo not shown) [Compound 74, 1-(4-Chloro-benzenesulfonyl)-3-methyl-3-phenyl-piperidine], the IC50 was more than 10000 nM.

On to `CC1C=CC(C)N1S(=O)(=O)c1ccc(Cl)cc1` (stereo not shown) [Compound 149, 1-(4-Chloro-benzenesulfonyl)-2,5-dimethyl-2,5-dihydro-1H-pyrrole], for which the IC50 fell in the range of 1000 to 10000 nM.

As to `O=S(=O)(c1ccc(Cl)cc1)N1CCCN2CCCN=C21` [Compound 138, 1-(4-Chloro-benzenesulfonyl)-1,3,4,6,7,8-hexahydro-2H-pyrimido[1,2-a]pyrimidine], the IC50 was more than 10000 nM.

As to `CC1CCCC(C)N1S(=O)(=O)c1ccc(Cl)cc1` (stereo not shown) [Compound 47, 1-(4-Chloro-benzenesulfonyl)-2,6-dimethyl-piperidine], the IC50 lay within 100 to 1000 nM.

Take `O=S(=O)(c1ccc(Cl)cc1)N1CCCCCC1` [Compound 43, 1-(4-Chloro-benzenesulfonyl)-azepane]: the IC50 fell in the range of 1000 to 10000 nM.

As for `CC1CCc2cc(F)ccc2N1S(=O)(=O)c1ccc(Cl)cc1` (stereo not shown) [Compound 13, 1-(4-Chloro-benzenesulfonyl)-6-fluoro-2-methyl-1,2,3,4-tetrahydro-quinoline], the IC50 fell in the range of 1000 to 10000 nM.

For `CC1CCCCN1S(=O)(=O)c1ccc(Cl)cc1` (stereo not shown) [Compound 48, 1-(4-Chloro-benzenesulfonyl)-2-methyl-piperidine], the IC50 was 1000 to 10000 nM.

As to `O=S(=O)(c1ccc(Cl)cc1)N1CCCCC1c1cccnc1` (stereo not shown) [Compound 1, 1-(4-Chloro-benzenesulfonyl)-1,2,3,4,5,6-hexahydro-[2,3′]bipyridinyl], the IC50 lay in the range of 1000 to 10000 nM.

`O=S(=O)(c1ccc(Cl)cc1)N1CCCC2CCCCC21` (stereo not shown) [Compound 9, 1-(4-Chloro-benzenesulfonyl)-decahydro-quinoline]: the IC50 lay within 1000 to 10000 nM.

`O=S(=O)(c1ccc(Cl)cc1)N1CCC(Br)CC1` [Compound 56, 4-Bromo-1-(4-chloro-benzenesulfonyl)-piperidine]: the IC50 was more than 10000 nM.

Take `CCCCNC(=O)[C@H]1CSC(c2ccc(OC)c(OC)c2)N1S(=O)(=O)c1ccc(Cl)cc1` (stereo partly drawn) [Compound 139, (4S)-N-butyl-3-[(4-chlorophenyl)sulfonyl]-2-(3,4-dimethoxyphenyl)-1,3-thiazolidine-4-carboxamide]: the IC50 is more than 10000 nM.

For `O=C(NCc1ccccc1)C1Cc2ccccc2N1S(=O)(=O)c1ccc(Cl)cc1` (stereo not shown) [Compound 12, 1-(4-Chloro-benzenesulfonyl)-2,3-dihydro-1H-indole-2-carboxylic acid benzylamide], the IC50 fell in the range of 1000 to 10000 nM.

Take `CC1CCCN(S(=O)(=O)c2ccc(Cl)cc2)C1` (stereo not shown) [Compound 54, 1-(4-Chloro-benzenesulfonyl)-3-methyl-piperidine]: the IC50 lay in the range of 1000 to 10000 nM.

In the case of `C[C@@H]1CCC[C@H](C)N1S(=O)(=O)c1ccc(Cl)cc1` [Compound 45, (2R,6S)-1-[(4-chlorophenyl)sulfonyl]-2,6-dimethylpiperidine], the IC50 was 100 to 1000 nM.

As for `CCC1CCCCN1S(=O)(=O)c1ccc(Cl)cc1` (stereo not shown) [Compound 46, 1-(4-Chloro-benzenesulfonyl)-2-ethyl-piperidine], the 50% inhibitory concentration (IC50) lay in the range of 100 to 1000 nM.

On to `O=C(Nc1ccccc1)C1Cc2ccccc2N1S(=O)(=O)c1ccc(Cl)cc1` (stereo not shown) [Compound 2, 1-(4-Chloro-benzenesulfonyl)-2,3-dihydro-1H-indole-2-carboxylic acid phenylamide], for which the IC50 was 1000 to 10000 nM.

In general, IC50 refers to the concentration at which inhibition is half-maximal.
